Measured values taken from US8772292B2, “Process for the preparation of a medicament comprising vardenafil hydrochloride trihydrate” (Ratiopharm GmbH, priority 2007, dated 2014).
Structures can show the parent of a compound that is named as a salt.

Experiment: Raman spectra after processing steps (hydrate stability in tablets)
Assay type: physicochemical
Experimental: Vardenafil hydrochloride trihydrate and anhydrate can be identified and distinguished from one another e.g. by means of Raman spectroscopy.
Raman spectra were recorded after the processing steps of precompacting, subsequent mixing, pressing and coating (FIGS. 1 and 2). For this, the film was scratched off from the film-coated tablets beforehand. The Raman spectra of the pure vardenafil hydrochloride trihydrate and of the anhydrate are also shown for comparison.
In the relevant range of 1694-1702 cm^−1, the auxiliaries used in Example 1 had no influence on the vardenafil bands (measurement on a placebo tablet is not also shown).

- stability of the hydrate under the processing conditions (Example 4: coating at intake air temperature of 60-65° C.): dehydrated
- stability of the hydrate under the processing conditions (Examples 1 to 3: approx. 23° C., 33-35% rel. humidity, coating intake air 45° C.): stable
Compound: CCCc1nc(C)c2c(=O)[nH]c(-c3cc(S(=O)(=O)N4CCN(CC)CC4)ccc3OCC)nn12 [Vardenafil hydrochloride trihydrate, {2-ethoxy-5-[(4-ethyl-1-piperazinyl)sulfonyl]phenyl}-5-methyl-7-propylimidazo-[5,1-f][1,2,4]triazin-4(3H)one]
